The target in one assay is Gamma-secretase. In words: Modulation of gamma-secretase activity (unknown origin) assessed as amyloid-beta(1-42) production by ELISA. The assay is classed as protein-complex assay, Homo sapiens.
The next assay concerns Rattus norvegicus. In words: Reduction of amyloid-beta peptides level in rat brain at 30 mg/kg, po. In kind it is functional, organism-based.

The source made the active and inactive calls. No cut-off for these calls is given here.

Regarding `CNc1nc(Nc2ccc(-n3cnc(Cl)c3)c(OC)c2)nc2c1C=CCN=C2c1ccccc1`, the half-maximal inhibitory concentration (IC50) (usually the concentration needed to halve the response being measured) on Gamma-secretase was 5 nM. In addition, the inhibition result in the assay with Rattus norvegicus was “Active”. On to `COc1cc(Nc2nc3c(c(N(C)C)n2)C=CCOC3c2ccccc2)ccc1-n1cnc(Cl)c1` (stereo unspecified), for which, on Gamma-secretase, the 50% inhibitory concentration (IC50) is 56 nM. For `COc1cc(Nc2nc3c(c(N(C)C)n2)C=CCN=C3c2ccccc2)ccc1-n1cnc(Cl)c1`, at Gamma-secretase, the IC50 is 21 nM. Further, in the assay with Rattus norvegicus, the inhibition result is “Active”. Take `COc1cc(Nc2nc3c(c(N(C)C)n2)C=CCNC3c2ccccc2)ccc1-n1cnc(Cl)c1` (stereo unspecified): the IC50 at Gamma-secretase is 36 nM.

The values above are taken from ChEMBL document CHEMBL3769330, “Synthesis of pyrimido[4,5-c]azepine- and pyrimido[4,5-c]oxepine-based γ-secretase modulators” (Bioorg Med Chem Lett, 2016).
